Patent US20210371388A1, “Bicyclic Carboxamide with Exocyclic Urea Derivatives as Antivirals for the Treatment of HBV Infection” (Baruch S. Blumberg Institute, priority 2020, published 2021)

Test system: HBV replication in AML12HBV10 cells
Experiment: Antiviral efficacy: HBV DNA in AML12HBV10 cell lysates by dot-blot hybridization
Type: cell-based
Conditions: Hepatitis B virus, AML12HBV10, 48 h, read-out: Antiviral activity (EC50), AML12HBV10 cells, 48 hours treatment, concentration that reduces the amount of HBV DNA by 50%
Protocol: The antiviral efficacy of the compounds of the disclosure, as presented in Table 2, were determined in AML12HBV10 cells. AML12HBV10 is an immortalized murine hepatocyte (AML12)-derived stable cell line that supports robust HBV replication in a tetracycline inducible manner (Xu et al.). The cells were seeded into 96 well plates at a density of 2×10^4 cells per well and cultured in DMEM/F12 media with 10% fetal bovine serum in the absence of tetracycline to allow pgRNA transcription and HBV DNA replication. One day after seeding, cells were left untreated or treated with a serial dilution of testing compounds, ranging from 50 μM to 0.39 μM, for 48 hours. Cells were then lysed by adding into each well of 100 μl lysis buffer containing 10 mM Tris-HCl (pH 7.6), 1 mM EDTA, 100 mM NaCl and 1% NP-40 and incubated at 37° C. for 30 minutes. Half amount (50 μλ) of cell lysate from each well was combined with equal volume of denaturing solution containing 0.5N NaOH and 1.5M NaCl. After 5 minute incubation, 100 μl of neutralization solution (1M Tris-HCl, pH 7.4, 1.5M NaCl) was added into each well. The denatured cell lysates (totally 200 μl) were applied onto Nylon membrane using 96-well dot-blot manifold (Biorad). HBV DNA in the cell lysates were determined by dot-blot hybridization with alpha-^32P-UTP-labelled riboprobe specific for HBV minus strand DNA. The antiviral efficacy of a compound of the disclosure was expressed as the concentration that reduces the amount of HBV DNA by 50% (EC50).

Row | SMILES | EC50
1 | O=C1CCN(C(=O)Nc2ccc(F)c(Cl)c2)c2ccccc21 [Entry 1] | 1.32 µM
2 | O=C1CCN(C(=O)Nc2ccc(F)c(Cl)c2)[C@H]2CCCC[C@H]12 [Entry 3] | 0.42 µM
3 | O=C(Nc1ccc(F)c(Cl)c1)N1CCc2ccccc21 [Entry 4] | 0.36 µM
4 | O=C(Nc1ccc(F)c(Cl)c1)N1CCOc2ccccc21 [Entry 5] | 0.52 µM
5 | O=C(Nc1ccc(F)c(Cl)c1)N1CCCCc2ccccc21 [Entry 6] | 12.3 µM
6 | O=C(Nc1ccc(F)c(Cl)c1)N1CCCc2ccccc21 [Entry 8] | 1.55 µM
7 | O=C(Nc1ccc(F)c(Cl)c1)N1CCNc2ccccc21 [Entry 9] | 0.5 µM
8 | O=C1CCCN(C(=O)Nc2ccc(F)c(Cl)c2)c2ccccc21 [Entry 10] | ≥ 10 µM
9 | Cc1ccc2c(c1)CCN2C(=O)Nc1ccc(F)c(Cl)c1 [Entry 11] | 5.26 µM
10 | O=C(Nc1ccc(F)c(Cl)c1)N1CCc2cc(F)c(F)cc21 [Entry 12] | 2.07 µM
11 | O=C1CCN(C(=O)Nc2cc(F)c(F)c(F)c2)[C@H]2CCCC[C@@H]12 [Entry 13] | 2.41 µM
12 | O=C1CCN(C(=O)Nc2cc(F)c(F)c(F)c2)[C@H]2CCCC[C@H]12 [Entry 14] | 3.46 µM
13 | CC1(O)CCN(C(=O)Nc2ccc(F)c(Cl)c2)C2CCCCC21 (centres unmarked) [Entry 15] | 6.4 µM
14 | O=C(Nc1cc(F)c(F)c(F)c1)N1CCC(O)C2CCCCC21 (centres unmarked) [Entry 19] | ≥ 10 µM
15 | O=C1CCN(C(=O)Nc2cc(F)c(F)c(Cl)c2)C2CCCCC12 (centres unmarked) [Entry 20] | 2.4 µM
16 | O=C(Nc1cc(F)c(F)c(F)c1)N1CCNc2ccccc21 [Entry 21] | 0.63 µM
17 | O=C1CN(C(=O)Nc2cc(F)c(F)c(F)c2)c2ccccc2N1 [Entry 22] | ≥ 10 µM
18 | O=C1CN(C(=O)Nc2ccc(F)c(Cl)c2)c2ccccc2N1 [Entry 23] | ≥ 10 µM
19 | O=C(Nc1ccc(F)c(Cl)c1)N1CCN(CCCCF)c2ccccc21 [Entry 24] | ≥ 10 µM

Row | SMILES | EC50
20 | O=C(Nc1cc(F)c(F)c(F)c1)N1CCN(CC(F)(F)F)c2ccccc21 [Entry 25] | ≥ 10 µM
21 | O=C(Nc1cc(F)c(F)c(F)c1)N1CCN(CCC(F)(F)F)c2ccccc21 [Entry 26] | ≥ 10 µM
22 | O=C(Nc1cc(F)c(F)c(F)c1)N1CCN(C(=O)c2ccccn2)c2ccccc21 [Entry 27] | ≥ 10 µM
23 | O=C(Nc1cc(F)c(F)c(F)c1)N1CCN(C(=O)c2ccc(C(F)(F)F)cc2)c2ccccc21 [Entry 28] | ≥ 10 µM
24 | CC(=O)N1CCN(C(=O)Nc2cc(F)c(F)c(F)c2)c2ccccc21 [Entry 29] | ≥ 10 µM
25 | CC(C)(C)C(=O)N1CCN(C(=O)Nc2cc(F)c(F)c(F)c2)c2ccccc21 [Entry 30] | ≥ 10 µM
26 | CC(C)C(=O)N1CCN(C(=O)Nc2cc(F)c(F)c(F)c2)c2ccccc21 [Entry 31] | 4.71 µM
27 | O=C(Nc1cc(F)c(F)c(F)c1)N1CCN(C(=O)c2ccccc2)c2ccccc21 [Entry 32] | ≥ 10 µM
28 | O=C(Nc1cc(F)c(F)c(Cl)c1)N1CCNc2ccccc21 [Entry 33] | 0.93 µM
29 | O=C(Nc1cc(F)c(F)c(F)c1)N1CCN(S(=O)(=O)c2ccccc2)c2ccccc21 [Entry 34] | ≥ 10 µM
30 | CCCCOC(=O)N1CCN(C(=O)Nc2cc(F)c(F)c(F)c2)c2ccccc21 [Entry 35] | ≥ 10 µM
31 | CC(C)COC(=O)N1CCN(C(=O)Nc2cc(F)c(F)c(F)c2)c2ccccc21 [Entry 36] | ≥ 10 µM
32 | O=C(Nc1cc(F)c(F)c(F)c1)N1CCN(C(=O)OCc2ccccc2)c2ccccc21 [Entry 37] | ≥ 10 µM
33 | O=C(Nc1cc(F)c(F)c(F)c1)N1CCNC2CCCCC21 (centres unmarked) [Entry 38] | ≥ 10 µM
34 | O=C(Nc1ccc(F)c(Cl)c1)N1CCNC2CCCCC21 (centres unmarked) [Entry 40] | ≥ 10 µM
35 | O=C(Nc1ccc(F)c(Cl)c1)N1CCOC2CCCCC21 (centres unmarked) [Entry 41] | ≥ 10 µM
36 | O=C(Nc1ccc(F)c(Cl)c1)N1CCN(C(=O)Nc2ccc(F)c(Cl)c2)[C@H]2CCCC[C@@H]21 [Entry 42] | ≥ 10 µM
37 | CC(C)(C)OC(=O)N1CCN(C(=O)Nc2ccc(F)c(Cl)c2)[C@H]2CCCC[C@@H]21 [Entry 43] | ≥ 10 µM
38 | CC(C)(C)OC(=O)N1CCN(C(=O)Nc2ccc(F)c(Cl)c2)[C@@H]2CCCC[C@@H]21 [Entry 44] | ≥ 10 µM
